Reference: PubChem BioAssay (NCI)
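A five-concentration, 48-hour dose response in 96-well plates underlies each endpoint, interpolated linearly between surrounding concentrations. TGI denotes the concentration required for complete inhibition of growth.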

Assays:
Assay in all cases: growth of human tumour cells (NCI), 48 h
DU-145 prostate = test system: DU-145 prostate
OVCAR-4 ovarian = test system: OVCAR-4 ovarian
OVCAR-5 ovarian = test system: OVCAR-5 ovarian
HL-60(TB) leukemia = test system: HL-60(TB) leukemia
HS 578T breast = test system: HS 578T breast
LOX IMVI melanoma = test system: LOX IMVI melanoma
NCI-H23 lung = test system: NCI-H23 lung
U251 CNS = test system: U251 CNS
SR leukemia = test system: SR leukemia
SNB-75 CNS = test system: SNB-75 CNS
A498 renal = test system: A498 renal

| SMILES | TGI (DU-145 prostate) [µM] | TGI (OVCAR-4 ovarian) [µM] | TGI (OVCAR-5 ovarian) [µM] | TGI (HL-60(TB) leukemia) [µM] | TGI (HS 578T breast) [µM] | TGI (LOX IMVI melanoma) [µM] | TGI (NCI-H23 lung) [µM] | TGI (U251 CNS) [µM] | TGI (SR leukemia) [µM] | TGI (SNB-75 CNS) [µM] | TGI (A498 renal) [µM] |
| --- | --- | --- | --- | --- | --- | --- | --- | --- | --- | --- | --- |
| O=[N+]([O-])c1cc(C=NC23CC4CC(CC(C4)C2)C3)ccc1Cl | > 60.4 | 36.3 | > 100 | 8.28 | > 94 | 36.9 | 42.8 | 41.6 | 12.9 | > 100 | > 100 |
| Cc1ccnc(NS(=O)(=O)c2ccc(N=[N+]=[N-])cc2)n1 | > 100 | > 100 | > 100 | > 86.3 | > 100 | > 100 | > 100 | > 100 | > 100 | > 100 | > 100 |
| O=C1CCCCC1CN1CCCCC1 (centres undefined) | > 100 | > 100 | > 100 | > 100 | > 100 | > 100 | > 100 | > 100 | > 100 | > 100 | > 100 |
| COC(=O)C1=C(C(=O)OC)SC(=C2SCSC3=C2SC(C(=O)OC)=C(C(=O)OC)C32SC3=C(CCCC3)S2)S1 | > 100 | > 100 | > 100 | > 100 | > 100 | > 100 | > 100 | > 100 | > 100 | 36.3 | > 100 |
| NC1(c2cc3ccccc3s2)CCCC1 | > 100 | > 100 | > 100 | > 100 | > 100 | > 100 | > 100 | > 100 | 44.2 | > 100 | > 100 |
| NC(N)=Nc1ccc(CC(N)NCC(=O)O)cc1 (centres undefined) | > 25 | > 25 | > 25 | > 25 | > 25 | > 25 | > 25 | > 25 | > 25 | > 25 | > 25 |
| N#CC(NCc1cccc(CNC(C#N)c2ccccc2)c1)c1ccccc1 (centres undefined) | > 100 | > 100 | > 100 | 43.4 | > 100 | 28.9 | > 100 | > 100 | > 100 | 87.6 | > 100 |
| COc1cc(S(=O)(=O)Nc2nc(-c3ccc(N4C(=O)C(CC(=O)O)SC4c4cccs4)cc3)cs2)ccc1Cl (centres undefined) | > 100 | 66.4 | > 100 | 74 | > 100 | 39.3 | 49 | > 100 | 79.1 | 40.4 | > 100 |
| CCOC(=O)c1c(CN2CCCC2)n(-c2ccccc2)c2cc(Br)c(O)cc12 | 39.5 | 31.6 | 36.5 | 27.5 | 74.9 | 29.8 | 42.8 | 30.4 | 42.8 | 36.7 | 30.6 |
| COc1ccc(-c2[nH]c3c4c(nc5c(c24)C(=O)CC(C)(C)C5)CC(C)(C)C3)cc1 | > 100 | > 100 | > 100 | > 100 | > 100 | > 100 | > 100 | > 100 | 92.1 | > 100 | > 100 |
| Nn1c(Nc2ccc(S(=O)(=O)Nc3ncccn3)cc2)nnc(/C=C/c2c(O)ccc3ccccc23)c1=O | > 100 | > 100 | 91.9 | 45.2 | > 100 | > 100 | 45.6 | > 100 | 66.8 | 66.5 | 72.4 |
| Oc1ccccc1CNCc1nc2ccccc2[nH]1 | > 100 | > 100 | > 100 | > 100 | > 100 | > 100 | > 100 | > 100 | > 100 | > 100 | > 100 |
| Cc1ccc(-c2csc(=Nc3ccccc3)n2NC(=O)c2ccncc2)cc1 | > 100 | > 100 | > 100 | > 69.2 | > 100 | > 100 | > 76.1 | > 31.6 | > 100 | > 88.2 | > 100 |
| Cc1cc(-c2nc3ccc(F)cc3s2)ccc1NC(=O)[C@H](C)N | 26 | 24.4 | 21.7 | 7.45 | 28.5 | 3.99 | 26.1 | 9.06 | 5.65 | 25.4 | 21.7 |
| CC(=O)c1c2c(c3ccccc3c1O)O[C@@H]1OCC[C@H]21 | > 100 | > 100 | > 100 | > 100 | > 100 | > 100 | > 100 | > 100 | > 100 | 34.2 | > 100 |
| COc1ccc(-n2c(C)nc3ccc(NC(=S)Nc4ccccc4)cc3c2=O)cc1 | > 100 | > 100 | > 100 | > 100 | > 100 | > 100 | > 100 | > 100 | > 100 | > 100 | > 100 |
| CCCCCC1=CC(=O)C1(Cl)Cl | 26.1 | 38.1 | 29.5 | 4.06 | > 81.3 | 21.2 | 49.7 | 25.1 | 19.4 | 30.4 | 43.3 |
| O=[N+]([O-])c1ccc2[nH]nc(OCc3ccccc3Cl)c2c1 | > 100 | > 100 | > 100 | > 100 | > 100 | > 100 | > 100 | > 100 | > 100 | > 100 | > 100 |
| O=C(/C=C/c1ccc2c(c1)OCO2)c1ccc(O)cc1 | 30.1 | 38.8 | 35.1 | 28.7 | 34.1 | 24.8 | 30 | 26.9 | 4.96 | 75.7 | 38.3 |
